Where two headings read alike, the source gives them in different places. Bounds are passed on as bounds.

In patent US20240051937A1, “ISOINDOLINONE AMIDE COMPOUNDS USEFUL TO TREAT DISEASES ASSOCIATED WITH GSPT1” (Monte Rosa Therapeutics, Inc., priority 2021, published 2024) one finds DC50 and IC50 data, which are given here for nine compounds.

One assay addresses GSPT1 (Homo sapiens, UniProt P15170+Q96SW2). The experiment in a line: Immunofluorescence assay for GSPT1 degradation in CAL-Si cells. The class given is cell-based. Further details: CAL-Si cells were purchased from DSMZ (cat. Number ACC302); host or cells: CAL-Si (CAL-51) cells. To be noted: 6 hours treatment. Here is the method:
The representative compounds were tested in an immunofluorescence assay for their activity to bind to degrade GSPT1. CAL-Si cells were purchased from DSMZ (cat. Number ACC302), sub-cultured in 90% Dulbecco's MEM (4.5 g/L glucose, Gibco 11965)+10% […] inactivated FBS (BioConcept, 2-01F136I) and incubated at 37° C., 5% CO2. For the assay, imaging microtiterplate Cell Carrier 96 Ultra (Perkin Elmer 6055302) were pre-coated with Fibronectin (Sigma F085, 30 μl at 0.2 μg/ml) in PBS (100 μl, Gibco 14190) for 45 min at room temperature, rinsed with PBS and CAL-Si cells (30K cells/well) were plated and let to adhere overnight. Cells were treated with compounds typically using a serial dilution ranging from 30 μM to 0.1 nM for 6 hours. Compounds were stored at 10 mM DMSO stocks. Vehicle (DMSO), positive (CC-885, 10 μM) and rescue controls (positive control plus 0.2 μM bortezomib) were also included at this stage. Cells were subsequently rinsed with PBS and fixed in 10% Formalin solution (50 μl, Sigma HT5011)) for 20 mins at room temperature. Following three consecutive PBS washes (100 μl), cells were permeabilized in 0.1% Triton X-100 in PBS (Sigma 93443, 50 μl) for 15 mins at room temperature. Following three further PBS washes, […] blocking buffer (1% BSA, Sigma A4503, in PBS) was added for 45 min for signal-to-noise reduction.
Primary antibody (human GSPT1, Sigma HPA052488) was diluted in blocking buffer (dil.1/300, 35 μl/well) and incubated with the cells overnight at 4° C. After three PBS washes, Alexa-fluor 488 coupled secondary antibodies (Invitrogen, A32731, dil.1/1000), Alexa-fluor 647-Phalloidin (Invitrogen, A22287, dil.1/200) and DAPI (Thermo, #62248, dil.1/1000) were diluted in blocking buffer and incubated with the samples for 2 hours at room temperature. After three final PBS washes, samples were conserved in […] PBS in the dark, until measurement. Image acquisition was performed on the Operetta High-Content Imager (Perkin-Elmer). Fluorescence intensity of Alexa-Fluor 488 (GSPT1), Alexa-Fluor 647 (Actin) and DAPI (Nucleus) were measured. For the determination of GSPT1 DC50 values, a custom algorithm implemented in the PerkinElmer image analysis software Harmony-Acapella® was developed. After user-defined setting of adjustment parameters, the analysis was run identically without human intervention for all image fields. DAPI staining of the nuclei was used to determine the location of cells using standard nuclei detection modules. Segmentation artifacts were removed by threshold-based filters for area, roundness and intensity. The outline of the cells was determined analogously from the sum of the normalized, smoothed DAPI and Actin channel, starting from each nucleus.
The Alexa-Fluor 488 (GSPT1) signal intensity in each cell was finally measured, in order to obtain a Mean intensity per cell. GSPT1 degradation (DC50) was calculated after normalization to controls and data import in CDD vault Database, using non-linear regression.

Assay [1] deals with T1, Full length wild-type cereblon CRBN (Homo sapiens, UniProt Q96SW2).
T1 construct: Full length wild-type cereblon CRBN (80.0 nM, 10 μL) was incubated in assay buffer
T1 sequence (Q96SW2 whole entry): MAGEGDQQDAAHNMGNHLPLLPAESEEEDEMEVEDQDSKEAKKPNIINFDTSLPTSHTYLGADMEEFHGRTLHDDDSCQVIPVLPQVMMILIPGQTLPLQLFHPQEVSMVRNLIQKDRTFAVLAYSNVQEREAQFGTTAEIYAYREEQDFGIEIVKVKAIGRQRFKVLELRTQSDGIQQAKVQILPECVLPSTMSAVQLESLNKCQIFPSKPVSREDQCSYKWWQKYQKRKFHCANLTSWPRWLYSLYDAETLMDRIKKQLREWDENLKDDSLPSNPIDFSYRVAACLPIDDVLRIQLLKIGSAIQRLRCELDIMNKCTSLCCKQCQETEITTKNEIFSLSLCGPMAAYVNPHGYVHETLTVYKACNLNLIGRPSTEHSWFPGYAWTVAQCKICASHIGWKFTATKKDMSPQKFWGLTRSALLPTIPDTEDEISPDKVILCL
Kind of assay: Fluorescence polarization (FP) assay indicating cereblon binding. The text has this:
Protocol for Fluorescent Polarization Assay
Compound activity was monitored in a fluorescence polarization (FP) homogeneous assay using 1-[5-({2-[2-(2-{[2-(2,6-dioxopiperidin-3-yl)-1,3-dioxo-2,3-dihydro-1H-isoindol-4-yl]oxy}acetamido)ethoxy]ethyl}carbamoyl)pentyl]-3,3-dimethyl-2-[(1E,3E)-5-[(2E)-1,3,3-trimethyl-5-sulfo-2,3-dihydro-1H-indol-2-ylidene]penta-1,3-dien-1-yl]-3H-indol-1-ium-5-sulfonate as a fluorescent probe. Unless otherwise stated, all reagents were purchased from Sigma Aldrich. Enzymatic reactions were conducted in Perkin-Elmer Black 384 well ProxiPlate Plus (catalogue no. 6008269) in 10 μL total volume. Full length wild-type cereblon CRBN (80.0 nM, 10 μL) was incubated in assay buffer containing 20 mM HEPES (pH 8.0), […], 0.5 mM TCEP and 0.05% Tween 20 in the presence or absence of compound (300 nL). Inhibitors were stored as 10 mM DMSO stocks in an inert environment (low humidity, dark, low oxygen, room temperature) using the Storage Pod System. Compounds and DMSO were dispensed using the Echo E5XX (Labcyte Inc. USA) to give concentrations from 300 to 0.937 or 3000 to 9.3 nM in a 12 data point curve. […] Following incubation at room temperature for 30 min, the assay was initiated by dispensing the probe to a final concentration of 5 nM (2.5 nL of a 20 μM stock) using the Echo E5XX. FP was measured after a period of 12 hours using a Pherastar plate reader (BMG Labtech, Germany) exciting at 590 nm and measuring the amount of parallel and perpendicular light at 675 nm. The FP signal was subsequently normalized to the no-compound control (i.e., DMSO). Analysis and IC50 values were derived using Dotmatics (Dotmatics UK) software.

Where [2] appears, read: read-out: Code: activity for GSPT1 degradation (DC50).
[3] abbreviates: GSPT1 degradation, read-out: DC50.
Where [4] appears, read: cereblon binding, CRBN 80.0 nM, probe 5 nM, FP read after 12 hours, read-out: rFP IC50.
Setting [5] is: fluorescence polarization assay, read-out: IC50 value (cereblon binding).

Sequence of GSPT1 (P15170 whole entry): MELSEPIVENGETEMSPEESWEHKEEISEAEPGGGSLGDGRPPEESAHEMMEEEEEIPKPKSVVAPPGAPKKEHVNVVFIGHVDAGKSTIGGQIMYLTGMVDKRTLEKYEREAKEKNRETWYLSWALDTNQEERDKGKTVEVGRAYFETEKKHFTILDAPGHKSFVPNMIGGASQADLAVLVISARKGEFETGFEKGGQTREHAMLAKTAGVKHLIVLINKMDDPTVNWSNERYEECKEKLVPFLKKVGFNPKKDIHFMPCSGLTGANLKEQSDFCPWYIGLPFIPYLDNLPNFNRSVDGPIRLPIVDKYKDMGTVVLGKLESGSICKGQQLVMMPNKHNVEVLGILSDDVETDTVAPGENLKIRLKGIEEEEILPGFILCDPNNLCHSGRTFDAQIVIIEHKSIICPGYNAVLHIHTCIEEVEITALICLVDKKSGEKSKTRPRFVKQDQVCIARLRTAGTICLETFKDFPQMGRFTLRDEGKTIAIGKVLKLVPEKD
Sequence of GSPT1 (Q96SW2 whole entry): as the sequence (Q96SW2 whole entry) above
Sequence of GSPT1 (Q16531 whole entry partner): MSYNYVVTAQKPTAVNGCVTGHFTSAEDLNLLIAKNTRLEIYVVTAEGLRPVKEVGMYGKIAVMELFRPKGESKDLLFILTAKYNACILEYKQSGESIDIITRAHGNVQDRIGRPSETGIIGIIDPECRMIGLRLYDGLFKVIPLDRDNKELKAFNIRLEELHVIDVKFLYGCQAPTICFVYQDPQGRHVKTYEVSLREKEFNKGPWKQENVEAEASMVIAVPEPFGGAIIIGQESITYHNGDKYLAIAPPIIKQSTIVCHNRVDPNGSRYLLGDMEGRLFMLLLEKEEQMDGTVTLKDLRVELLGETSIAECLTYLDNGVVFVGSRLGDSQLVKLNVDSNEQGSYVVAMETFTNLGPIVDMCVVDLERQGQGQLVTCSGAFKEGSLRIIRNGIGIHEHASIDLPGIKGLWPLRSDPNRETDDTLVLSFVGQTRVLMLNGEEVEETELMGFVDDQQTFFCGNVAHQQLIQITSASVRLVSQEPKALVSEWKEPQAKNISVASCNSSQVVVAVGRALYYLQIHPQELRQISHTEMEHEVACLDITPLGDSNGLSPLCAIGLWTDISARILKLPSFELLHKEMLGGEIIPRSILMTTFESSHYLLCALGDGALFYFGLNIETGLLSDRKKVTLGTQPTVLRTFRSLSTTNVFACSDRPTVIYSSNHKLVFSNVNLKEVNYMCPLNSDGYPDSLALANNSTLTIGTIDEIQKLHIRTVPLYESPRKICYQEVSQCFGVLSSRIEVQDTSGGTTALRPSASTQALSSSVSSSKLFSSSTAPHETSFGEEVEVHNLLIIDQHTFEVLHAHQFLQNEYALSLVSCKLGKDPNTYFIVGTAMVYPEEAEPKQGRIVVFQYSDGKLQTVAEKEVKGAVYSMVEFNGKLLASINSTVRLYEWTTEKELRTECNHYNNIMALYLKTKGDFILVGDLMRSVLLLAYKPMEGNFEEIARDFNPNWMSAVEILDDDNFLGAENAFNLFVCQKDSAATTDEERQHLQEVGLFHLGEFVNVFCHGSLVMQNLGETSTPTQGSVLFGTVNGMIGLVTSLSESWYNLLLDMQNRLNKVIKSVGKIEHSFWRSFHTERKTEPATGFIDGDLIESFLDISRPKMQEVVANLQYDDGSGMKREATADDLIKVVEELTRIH

As to `CC(C)(C)c1ccc(NC(=O)CCc2ccc3c(c2)C(=O)N(C2CCC(=O)NC2=O)C3)cn1` (stereo not drawn) [Compound 41], the half-maximal degradation concentration (DC50) at GSPT1 (setting [2]) was no more than 30 nM; at GSPT1 (setting [3]), 26 nM. Moreover, in assay [1] (setting [4]), the IC50 was 1100 to 1700 nM.

Take `Cc1ccc(NC(=O)CCc2ccc3c(c2)C(=O)N(C2CCC(=O)NC2=O)C3)cc1OC(F)F` (stereo not drawn) [Compound 29]: the results for the DC50 on GSPT1 (setting [2]) and at GSPT1 (setting [3]) were no more than 30 nM and 6 nM, respectively. Moreover, the 50% inhibitory concentration (IC50) in assay [1] (setting [4]) is 1100 to 1700 nM.

In the case of `Cc1ncc(NC(=O)CCc2ccc3c(c2)C(=O)N(C2CCC(=O)NC2=O)C3)cc1Cl` (stereo not drawn) [Compound 3], on GSPT1 (setting [2]), the DC50 fell in the range of 30 to 300 nM. In addition, the IC50 was no more than 500 nM in assay [1] (setting [4]) and less than 1100 nM in assay [1] (setting [5]).

For the compound `CC1(c2ccc(NC(=O)CCc3ccc4c(c3)C(=O)N(C3CCC(=O)NC3=O)C4)cc2)CC1` (stereo not drawn) [Compound 58], the half-maximal degradation concentration (DC50) at GSPT1 (setting [2]) lay within 30 to 300 nM. Moreover, the concentration for half-maximal inhibition (IC50) in assay [1] (setting [4]) lay within 1100 to 1700 nM.

Consider `CC(C)(C)c1ccc(NC(=O)CCc2ccc3c(c2)C(=O)N(C2CCC(=O)NC2=O)C3)cc1` (stereo not drawn) [Compound 45], for which the DC50 was no more than 30 nM at GSPT1 (setting [2]) and 22 nM at GSPT1 (setting [3]). Further, the IC50 in assay [1] (setting [4]) is 500 to 1100 nM; in assay [1] (setting [5]), less than 1100 nM.

On to `Cc1cc(NC(=O)CCc2ccc3c(c2)C(=O)N(C2CCC(=O)NC2=O)C3)cc(C)n1` (stereo not drawn) [Compound 52], for which the DC50 on GSPT1 (setting [2]) is greater than 300 nM. For the same compound, in assay [1] (setting [4]), the IC50 is greater than 1700 nM.

For `CN1CCC(COc2cc(Cl)cc(NC(=O)CCc3ccc4c(c3)C(=O)N(C3CCC(=O)NC3=O)C4)c2)C1` (stereo not drawn) [Compound 37], the DC50 on GSPT1 (setting [2]) was greater than 300 nM. The values for the IC50 in assay [1] (setting [4]) and in assay [1] (setting [5]) were 500 to 1100 nM and less than 1100 nM, respectively.

For the compound `O=C1CCC(N2Cc3ccc(CCC(=O)Nc4cccc(OC(F)(F)F)c4)cc3C2=O)C(=O)N1` (stereo not drawn) [Compound 5], the DC50 at GSPT1 (setting [2]) was in the range of 30 to 300 nM. In assay [1] (setting [4]), the IC50 was 1100 to 1700 nM.

As for `Cc1c(Cl)cc(NC(=O)COc2ccc3c(c2)C(=O)N(C2CCC(=O)NC2=O)C3)cc1CN1CCOCC1` (stereo not drawn) [Compound 68, N-(3-chloro-4-methyl-5-(morpholinomethyl)phenyl)-2-((2-(2,6-dioxopiperidin-3-yl)-3-oxoisoindolin-5-yl)oxy)acetamide], the DC50 at GSPT1 (setting [2]) was greater than 300 nM. Moreover, in assay [1] (setting [4]), the IC50 is no more than 500 nM.
